Experimental findings from paper PMC10804683, “Identification of the pyridoxal 5′‐phosphate allosteric site in human pyridox(am)ine 5′‐phosphate oxidase” (Protein Science : A Publication of the Protein Society, 2024) are described below.

As usually defined, the Kd is the free concentration of one partner at which half of the binding sites on the other are occupied at equilibrium, for simple one-to-one binding.

The structures appear in SMILES notation.

The target of assay [1] is T1, human PNPO 1-31del variant (holo-enzyme) (Homo sapiens, UniProt Q9NVS9).
T1 construct: a main form corresponding to the entire protein; made in house; host or cells: E. coli BL21(DE3)
T1 sequence (Q9NVS9 32-261): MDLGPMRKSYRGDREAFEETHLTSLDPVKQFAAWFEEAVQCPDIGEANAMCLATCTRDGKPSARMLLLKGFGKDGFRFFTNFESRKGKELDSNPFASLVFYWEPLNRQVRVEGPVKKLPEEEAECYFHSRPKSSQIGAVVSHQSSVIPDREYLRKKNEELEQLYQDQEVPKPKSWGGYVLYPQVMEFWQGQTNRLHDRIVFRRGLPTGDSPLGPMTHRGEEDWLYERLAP
As to the kind of experiment: PLP binding by FMN fluorescence changes, holo 1-31del. The following applies: read-out: PLP binding KD^FLUO. From the text:
In order to further confirm the location of the PNPO allosteric site, we made several attempts to obtain the crystal structure of the protein‐PLP complex. With the E. coli homologue, any attempt to obtain such a complex with the wild type protein yielded structures in which PLP was bound at the active site, and we could obtain a complex with PLP bound at the allosteric site only when we used a multiple variant form of the enzyme in which the capability to bind ligands at the active site was impaired (Barile et al., [2021]). On the basis of this previous experience, we carried out co‐crystallization attempts with either the wild type or the R225H variant of the human protein and PLP. […] We obtained crystals with both protein forms (Table S1); however, PLP was detected only in the active site of the wild type protein, thus a clear indication about the location of the allosteric site was missing. […] The most interesting features of the 1‐31del form are a lower KD for PLP binding (threefold lower with respect to wild type PNPO), which indicates a higher affinity for the allosteric site, and the related more marked allosteric inhibition, which is evident from the comparison of the reaction kinetics measured in TRIS and HEPES buffers (Figure 7). […]

Assay [2] addresses T2, human PNPO F48A variant (Homo sapiens, UniProt Q9NVS9, F48A).
T2 sequence (Q9NVS9 1-261 F48A): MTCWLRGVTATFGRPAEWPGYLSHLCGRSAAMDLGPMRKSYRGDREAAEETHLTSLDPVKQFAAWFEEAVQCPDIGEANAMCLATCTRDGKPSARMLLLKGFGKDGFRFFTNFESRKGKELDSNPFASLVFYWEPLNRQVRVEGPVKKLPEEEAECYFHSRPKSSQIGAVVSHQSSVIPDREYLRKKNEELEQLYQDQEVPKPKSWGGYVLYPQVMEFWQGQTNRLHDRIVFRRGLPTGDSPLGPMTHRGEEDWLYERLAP
As to the kind of experiment: PLP inhibition kinetics of PNP oxidation, F48A. It is filed as biochemical. Also noted: a main form corresponding to the entire protein; made in house; host or cells: E. coli BL21(DE3). The conditions noted are these: F48A (behavior much less marked than wild type); Na-HEPES pH 7.6, 2 μM enzyme, PLP 0–16 μM. The procedure:
This is a general inhibition mechanism that takes into account the possibility of PLP binding to both the active and allosteric sites. PLP binding at the active site gives a complete, competitive inhibition, whereas PLP binding at the allosteric site yields a substrate‐enzyme‐PLP ternary complex that is still catalytically active, although k CAT is reduced by a coefficient whose value is around 0.15. A thorough inhibition kinetic characterization was carried out with the wild type, F48A, F48A/E50L/R258L, and F48A/E50L/H248N/R258L PNPO forms, so as to evaluate the effect of the variations on the allosteric properties of the enzyme. The initial velocity of PNP conversion into PLP was measured in Na‐HEPES buffer (in which PLP is allowed to accumulate) by varying substrate concentration at different, fixed exogenous PLP concentrations, using 2 μM enzyme. A series of saturation curves were obtained that were used to fit the Michaelis–Menten equation (Figure 5), acquiring apparent V MAX and K M values as a function of PLP concentration. […]
FIGURE 5 Characterization of PLP inhibition. Upper panels: The initial velocity of the reaction was measured with 2 μM wild type (a), and the F48A (b), F48A/E50L/R258L (c), and F48A/E50L/H248N/R258L (d) PNPO variants, varying PNP concentration while keeping exogenous PLP fixed at different concentrations (0, 0.25, 0.5, 1, 2, 4, 8, and 16 μM). […]

On to `Cc1ncc(COP(=O)(O)O)c(C=O)c1O` [PLP, pyridoxal 5′‐phosphate], for which the Kd in assay [1] came out at 310 ± 30 nM. Moreover, the “type of inhibition of PNP oxidation by PLP” value in assay [2] was “typical hyperbolic increase of 1/V MAX and the parabolic increase of K M/V MAX”.
